In patent US9840515B2, “Protein kinase D inhibitors” (University of Pittsburgh—Of the Commonwealth System of …, priority 2010, dated 2017) one finds IC50 and melting point data, which are given here for 31 compounds.

Data set [1] has as its target T1, purified recombinant human PKD1 (Homo sapiens, UniProt Q15139).
T1 sequence (Q15139 1-912): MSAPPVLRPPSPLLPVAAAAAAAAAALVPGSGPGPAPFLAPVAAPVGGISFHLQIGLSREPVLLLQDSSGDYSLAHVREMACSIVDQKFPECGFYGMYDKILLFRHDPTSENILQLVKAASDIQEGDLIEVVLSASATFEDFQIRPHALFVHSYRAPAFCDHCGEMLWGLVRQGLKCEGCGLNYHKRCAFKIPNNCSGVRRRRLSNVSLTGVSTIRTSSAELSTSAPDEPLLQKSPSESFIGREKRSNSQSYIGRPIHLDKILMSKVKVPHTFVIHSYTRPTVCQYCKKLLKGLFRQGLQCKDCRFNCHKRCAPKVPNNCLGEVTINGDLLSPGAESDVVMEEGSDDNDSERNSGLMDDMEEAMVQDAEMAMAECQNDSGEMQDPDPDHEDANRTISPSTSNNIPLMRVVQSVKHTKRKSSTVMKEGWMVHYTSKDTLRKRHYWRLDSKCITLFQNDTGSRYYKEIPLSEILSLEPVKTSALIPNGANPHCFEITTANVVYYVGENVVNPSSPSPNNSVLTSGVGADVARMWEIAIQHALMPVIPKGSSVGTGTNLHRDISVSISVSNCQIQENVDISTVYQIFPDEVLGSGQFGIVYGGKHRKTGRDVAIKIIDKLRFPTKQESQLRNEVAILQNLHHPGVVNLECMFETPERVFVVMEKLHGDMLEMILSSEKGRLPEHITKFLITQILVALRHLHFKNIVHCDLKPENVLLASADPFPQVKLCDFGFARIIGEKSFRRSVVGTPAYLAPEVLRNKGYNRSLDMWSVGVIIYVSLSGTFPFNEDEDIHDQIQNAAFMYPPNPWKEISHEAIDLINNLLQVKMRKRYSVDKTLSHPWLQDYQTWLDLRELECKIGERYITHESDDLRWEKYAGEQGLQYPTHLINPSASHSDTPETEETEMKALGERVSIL
Briefly: radiometric PKD kinase activity assay. Format: biochemical. The procedure:
The radiometric PKD kinase assay was carried out by co-incubating 0.5 μCi γ-32P-ATP (PerkinElmer, Boston, Mass.), 20 μM ATP, 50 ng purified recombinant human PKD (PKD1, PKD2, PKD3) proteins, and 2.5 μg Syntide-2 (Sigma) in 50 μl kinase buffer that contains 50 mM Tris-HCl, pH 7.5, 4 mM MgCl2, 10 mM β-mercaptoethanol. The reaction was carried out under sub-saturation conditions, such that the initial rate was within linear kinetic range. The reaction mixture was incubated at 30° C. for 10 min, followed by spotting 25 μl of the mix onto a Whatman P81 filter paper (Whatman Inc, Clifton, N.J.). The filter papers were then washed three times in 0.5% phosphoric acid, air-dried, and counted using a Beckman LS6500 multi-purpose scintillation counter (Beckman, Fullerton, Calif.).

[2] abbreviates: read-out: IC50 radiometric PKD1.

Counter-ions that a name gives are not always drawn. Like-named read-outs stand apart in the source and are kept apart here.

What is called IC50 is the point on the concentration scale where inhibition reaches its midpoint. As a reminder, the melting point is the temperature of the solid-liquid transition. In turn, `Nc1ccc2sc3c(c2c1)SCCNC3=O` [mcf292-03, 3,4-Dihydro-9-amino-[1]benzothieno[2,3-f]-1,4-thiazepin-5(2H)-one] gave a melting point of 198.6 to 199 °C. Moreover, the IC50 in data set [1] (setting [2]) is 3170 nM.

As to `COc1cccc2c3c(sc12)C(=O)NCCS3` [kb-NB184-44, 3,4-Dihydro-7-methoxy-[1]benzothieno[2,3-f]-1,4-thiazepin-5(2H)-one], the melting point fell in the range of 220 to 224 °C.

Take `O=C1NCCSc2c1sc1ccc(N=C=S)cc21` [mcf292-05, 3,4-Dihydro-9-isothiocyanato-[1]benzothieno[2,3-f]-1,4-thiazepin-5(2H)-one]: the melting point is 253 to 253.3 °C. Besides, the IC50 in data set [1] (setting [2]) turned out to be 2770 nM. Consider `CC(C)(C)[Si](C)(C)Oc1ccc2oc(=O)c3c(c2c1)CCCN3`, for which the melting point fell in the range of 117 to 119 °C.

In turn, `COc1ccc2sc3c(c2c1)SCCN(C)C3=O` [kb-NB165-16, 2,3-Dihydro-4-Methyl-9-methoxy-[1]benzothieno[2,3-f]-1,4-thiazepin-5(2H)-one] registered a melting point of 160 to 161 °C. Also, the IC50 in data set [1] (setting [2]) came out at 4570 ± 780 nM. With `COc1ccc2oc3c(c2c1)CCCNC3=O` [kb-NB77-56, 7-Methoxy-2,3,4,5-tetrahydro-[1]benzoxolo[2,3-c]azepin-1-one], the melting point lay within 261 to 263 °C. The same measure, in the same setting: to `O=C(OCc1ccccc1)N1CCCc2c1c(=O)oc1ccc(O)cc21` [kb-NB77-91, Phenylmethyl 9-hydroxy-5-oxo-1,2,3,4-tetrahydrochromeno[3,4-b]pyridine-4-carboxylate] belongs 235 to 237 °C. For `C=CCOc1ccc2oc3c(c2c1)CCCNC3=O` [kb-NB77-84, 7-Allyloxy-2,3,4,5-tetrahydro-[1]benzoxolo[2,3-c]azepin-1-one], the melting point was in the range of 198 to 200 °C. Also, the IC50 in data set [1] (radiometric kinase activity assay, in vitro, read-out: IC50 PKD1) turned out to be 123 nM.

Consider `O=C1NCCSc2c1[s+]([O-])c1ccc(O)cc21` (stereo not shown) [kb-NB184-22, 3,4-Dihydro-9-hydroxy-6-oxide-[1]benzothieno[2,3-f]-1,4-thiazepin-5(2H)-one], for which the melting point is 160 to 163 °C (dec.). Still for that read-out and setting: the figure for `O=C1NCCSc2c1sc1cnc(O)nc21` (as salt: hydrochloride) [kmg-NB4-69A, 2-Hydroxy-7H,8H,9H-1,4-thiazepino[7′,6′-5,4]thiopheno[3,2-d]pyrimidin-6-one] is 335.9 °C (dec.). `COc1ccc2c(c1)c1c([s+]2[O-])C(=O)NCCS1` (stereo not shown) [kb-NB184-25, 3,4-Dihydro-9-methoxy-6-oxide-[1]benzothieno[2,3-f]-1,4-thiazepin-5(2H)-one]: the melting point fell in the range of 284 to 287 °C. Further, the IC50 in data set [1] (setting [2]) stood at 1080 nM. As to `O=C(CCl)Nc1ccc2sc3c(c2c1)SCCNC3=O` [mcf292-09, 3,4-Dihydro-9-(2-chloroacetamido)-[1]benzothieno[2,3-f]-1,4-thiazepin-5(2H)-one], the melting point was 229 to 230 °C (dec.). The IC50 in data set [1] (setting [2]) was 1500 nM.

In turn, `COc1ccc2oc3c(c2c1)CCCN(C)C3=O` [kb-NB96-04, 7-Methoxy-2-methyl-3H,4H,5H-azepino[5,6-d]benzo[b]furan-1-one] displayed a melting point of 150 to 151 °C.

`O=c1oc2ccc(O)c(Cl)c2c2c1NCCC2` [kb-NB96-47-1, 10-Chloro-9-hydroxy-1,2,3,4-tetrahydrochromeno[3,4-b]pyridin-5-one]: the melting point was in the range of 211 to 213 °C. As for `Oc1ccc2sc3c(c2c1)SCCNC3` [kb-NB165-83, 2,3,4,5-Tetrahydro-9-hydroxy-[1]benzothieno[2,3-f]-1,4-thiazepine], the melting point is 182 to 184 °C (dec.). Also, the IC50 in data set [1] (setting [2]) was 16400 nM. For `NCCN1CCSc2c(sc3ccc(O)cc23)C1=O` [kb-NB165-75, 2,3-Dihydro-4-(2-aminoethyl)-9-hydroxy-[1]benzothieno[2,3-f]-1,4-thiazepin-5-one], in that order: 250 to 254 °C and 757 nM. `CC(=O)Oc1ccc2oc3c(c2c1)CCCN(C(C)=O)C3=O` [kb-NB123-45-1, 2-Acetyl-1-oxo-3H,4H,5H-azepino[5,6-d]benzo[b]furan-7-yl acetate] gave a melting point of 155 to 157 °C.

Compound `CC(C)(C)[Si](C)(C)Oc1ccc2oc3c(c2c1)CCCNC3=O` showed a melting point of 209 to 212 °C.

In the case of `COc1nc(O)c2sc3c(c2n1)SCCNC3=O` [kmg-NB5-15A, 4-Hydroxy-2-methoxy-7H,8H,9H-1,4-thiazepino[7′,6′-5,4]thiopheno[3,2-d]pyrimidin-6-one], the melting point is 295 °C (dec.). Besides, in data set [1] (setting [2]), the IC50 was more than 30000 nM. With `O=C1NCCSc2c1sc1ccc(OCc3ccccc3)cc21` [kb-NB123-66, 3,4-Dihydro-9-benzyloxy-[1]benzothieno[2,3-f]-1,4-thiazepin-5(2H)-one], the melting point fell in the range of 247 to 249 °C. The same measure, in the same setting: to `O=C1NCCSc2c1sc1c(O)cccc21` [kb-NB184-40, 3,4-Dihydro-7-hydroxy-[1]benzothieno[2,3-f]-1,4-thiazepin-5(2H)-one] belongs 269 to 272 °C (dec.); to `CN1CCCc2c(oc3ccc(O)cc23)C1=O` [kb-NB142-25, 7-Hydroxy-2-methyl-3,4,5-trihydro-[1]benzoxolo[2,3-c]azepin-1-one], 282 to 284 °C; to `CC(=O)Oc1ccc2oc3c(c2c1)CCCNC3=O` [kb-NB123-36, 7-Acetoxy-2,3,4,5-tetrahydro-[1]benzoxolo[2,3-c]azepin-1-one], 196 to 197 °C. Same read-out and setting: to `COc1ccc2oc3c(c2c1)CCN(C)C3=O` [kb-NB123-37, 6-Methoxy-2-methyl-2,3,4-trihydrobenzo[b]pyridino[4,3-d]furan-1-one] belongs 168 to 172 °C; to `COc1nc(OC)c2sc3c(c2n1)SCCNC3=O` [kmg-NB5-13C, 2,4-Dimethoxy-7H,8H,9H-1,4-thiazepino[7′,6′-5,4]thiopheno[3,2-d]pyrimidin-6-one], 288 °C (dec.). Same read-out and setting: the figure for `O=C1NCCc2c1oc1ccc(O)cc21` [kb-NB123-23A, 6-Hydroxy-2,3,4-trihydrobenzo[b]pyridino[4,3-d]furan-1-one] is 265 to 268 °C; for `COc1ccc2sc3c(c2c1)[S+]([O-])CCNC3=O` (stereo not shown) [kb-NB184-45, 3,4-Dihydro-9-methoxy-1-oxide-[1]benzothieno[2,3-f]-1,4-thiazepin-5(2H)-one] it is 215 to 217 °C. The compound `O=C1NCCSc2c1sc1c(OCc3ccccc3)cccc21` [kb-NB184-38, 3,4-Dihydro-7-benzyloxy-[1]benzothieno[2,3-f]-1,4-thiazepin-5(2H)-one] gave a melting point of 213 to 215 °C. Still for that read-out and setting: to `O=C1NCCCOc2c1sc1ccc(OCc3ccccc3)cc21` [kb-NB184-36, 2,3,4,5-Tetrahydro-10-benzyloxybenzo[b]thieno[2,3-f]-1,5-oxazocin-6-one] belongs 195 to 200 °C; to `C=CCOc1ccc2oc(=O)c3c(c2c1)CCCN3` [kb-NB77-83, 9-Allyloxy-1,2,3,4-tetrahydrochromeno[3,4-b]pyridin-5-one], 90 to 91 °C; to `COc1ccc2sc3c(c2c1)OCCCNC3=O` [kb-NB184-57, 2,3,4,5-Tetrahydro-10-methoxybenzo[b]thieno[2,3-f]-1,5-oxazocin-6-one], 233 to 237 °C.
